In patent US7060707B2, “Isoquinoline derivatives” (Merck Patent GmbH, priority 2002, dated 2006):

## Cc1ccnc(NCCCCC(=O)NNC(=O)N2CCc3ccccc3C2CC(=O)O)c1 (stereo not shown) [Example 4]
  melting point: 103 to 109 °C
